Reference: patent US20240100018A1, “COMPOUNDS FOR THE TREATMENT OF A DISEASE OR DISORDER, METHODS FOR IDENTIFYING SAID COMPOUNDS” (priority 2021, published 2024)
“Also recorded” adds a separate entry of the source. Structures can show the parent of a compound that is named as a salt. Where two headings read alike, the source gives them in different places.

How the values were obtained:
[1] = test system: Calu-3 lung cancer cells, SARS-CoV-2 spike-mediated cell fusion; assay type: cell-based, human
[2] = test system: HEK293 cells
[3] = test system: HEK293T cells transfected with ACE2 and TMPRSS2, SARS-CoV-2 spike-mediated cell fusion; assay: cells; assay type: cell-based, human
[4] = test system: SARS-CoV-2 Isolate USA-WA1/2020; assay: In vitro viral inhibition assay in Vero-E6 cells (spike immunofluorescence); assay type: cell-based
[5] = test system: Vero-E6 cells
[6] = human, in vivo; cited from earlier work
[7] = test system: Vero-E6 cells; assay: Toxicity by reduced cell count in the viral inhibition assay; details: for host cell toxicity (reduced cell count): concentration not given
[8] = test system: Covid-19; details: in vivo; cited from earlier work
[9] = HEK293 syncytia assay, dose-response
[10] = summary call Active / Not Tested
[11] = summary call Active / Not Tested, cell line not given

Molecule: N=C(N)c1ccc2cc(OC(=O)c3ccc(N=C(N)N)cc3)ccc2c1 [nafamostat]
- inhibition of syncytia formation (cell fusion) [1]: prevented syncytia formation
- cell loss / cytotoxicity (total GFP) [2, 9]: did not mirror cell loss

Molecule: CN(C)CCCN1c2ccccc2CCc2ccccc21 [imipramine, Imipramine hydrochloride]
- Syncytia Assay [3]: Active
- inhibition of syncytia formation (cell fusion) ([3]; hydrochloride): impaired viral entry; also recorded: inhibited syncytia formation

Molecule: CO[C@H]1C[C@@H]2CC[C@@H](C)[C@@](O)(O2)C(=O)C(=O)N2CCCC[C@H]2C(=O)O[C@H]([C@H](C)C[C@@H]2CC[C@@H](OC(=O)C(C)(CO)CO)[C@H](OC)C2)CC(=O)[C@H](C)/C=C(\C)[C@@H](O)[C@@H](OC)C(=O)[C@H](C)C[C@H](C)/C=C/C=C/C=C/1C [temsirolimus, Temsirolimus]
- antiviral activity / inhibition of SARS-CoV-2 infection in Vero-E6 cells ([4]; […], concentration not stated): Qualitatively similar results to salmeterol
- Viral Entry Assay [4, 10]: Active

Molecule: OCc1cc(C(O)CNCCCCCCOCCCCc2ccccc2)ccc1O (centres unmarked) [salmeterol, Salmeterol]
- Viral Entry Assay [4]: Active
- antiviral activity / inhibition of SARS-CoV-2 infection in Vero-E6 cells [4]: exhibited antiviral activities; also recorded: prevented viral infection; also recorded: particularly strong inhibitory activities; also recorded: particularly effective; also recorded: can block in vitro SARS-CoV-2 replication at clinically relevant concentrations
- antiviral effect on spike-expressing cell population [4]: reduced the median of the spike-expressing population; also recorded: greater antiviral effect on the entire population
- spike-positive cells [4]: ~14%
- Syncytia Assay [3]: Active
- inhibition of syncytia formation (cell fusion) [3]: had inhibitory activity in the cell fusion assay and full and not borne out by syncytia formation experiments with either HEK293T or Calu-3 cells, except at high concentration
- potency in the cell fusion assay relative to the viral infection assay [3]: at least two orders of magnitude less potent
- inhibition of syncytia formation (cell fusion) [1]: not borne out by syncytia formation experiments with either HEK293T or Calu-3 cells, except at high concentration
- host cell toxicity (reduced cell count) [5]: without apparent host cell toxicity
- cell loss / cytotoxicity (total GFP) [2]: mirrored by cell loss

Molecule: C[C@]1(O)C[C@@H](c2nc(-c3ccc4ccc(-c5ccccc5)nc4c3)c3c(N)nccn32)C1 [linsitinib, Linsitinib]
- inhibition of syncytia formation (cell fusion) [3]: impaired viral entry; also recorded: particularly effective; also recorded: most potent agent; also recorded: dose-responsive inhibition of syncytia formation; also recorded: complete inhibition of cell fusion; also recorded: substantially reduced spike-protein-dependent syncytia formation
- EC50 ([3]; Homo sapiens, HEK-293T, cell fusion (syncytia) assay): 25 µM
- inhibition of syncytia formation (cell fusion) ([3]; listed as Linsitinib): highest inhibitory activity
- inhibition of syncytia formation (cell fusion) ([3]; listed as linisitinib): highest inhibitory activity
- Syncytia Assay [3, 11]: Active
- Cmax [6]: 5 to 10 µM

Molecule: CC(=O)c1c(O)c(C)c(O)c(Cc2c(O)c3c(c(C(=O)/C=C/c4ccccc4)c2O)OC(C)(C)C=C3)c1O [rottlerin, Rottlerin]
- antiviral activity / inhibition of SARS-CoV-2 infection in Vero-E6 cells ([4]; […], concentration not stated, listed as Rottlerin): inhibited viral infection
- Viral Entry Assay [4, 10]: Active
- host cell toxicity (reduced cell count) ([7]; Vero-E6): dose-limiting toxicity
- host cell toxicity (reduced cell count) ([7]; Vero-E6, listed as R077): dose-limiting toxicity as evidenced by reduced cell count

Molecule: COCCCC/C(=N\OCCN)c1ccc(C(F)(F)F)cc1 [fluvoxamine]
- decrease of Covid-19 deaths [8]: 90%

Molecule: CCC(=O)N1CCN(c2ccc(-n3c(=O)ccc4cnc5ccc(-c6cnc7ccccc7c6)cc5c43)cc2C(F)(F)F)CC1 [torin-1, Torin-1]
- antiviral activity / inhibition of SARS-CoV-2 infection in Vero-E6 cells ([4]; […], concentration not stated): Qualitatively similar results to salmeterol
- Viral Entry Assay [4, 10]: Active
- host cell toxicity (reduced cell count) [5]: dose-limiting toxicity as evidenced by reduced cell count
- toxicity ([7]; 100 nM): toxic

Molecule: O=C1[C@H](CC[C@H](O)c2ccc(F)cc2)[C@@H](c2ccc(O)cc2)N1c1ccc(F)cc1 [ezetimibe, Ezetimibe]
- reduction of spike protein-expressing populations ([4]; 25 μM (highest concentration studied), Vero-E6): reduced spike protein-expressing populations only at the highest concentration studied
- Viral Entry Assay [4, 10]: Active
- activity in the cell fusion assay [3]: inactive
- inhibition of syncytia formation (cell fusion) [3]: impaired viral entry; also recorded: had inhibitory activity in the cell fusion assay; also recorded: inhibited both viral infection and cell fusion
- potency in the cell fusion assay relative to the viral infection assay [3]: lower potency in the cell fusion assay
- Syncytia Assay [3, 11]: Active
- cell numbers ([7]; 25 μM, Vero-E6): reduction in cell numbers was also observed

Molecule: Dec-RVKR-CMK
- inhibition of syncytia formation (cell fusion) ([3]; HEK293T acceptor cells with ACE2 and TMPRSS2, 1-2 h pretreatment, 4 h co-culture): prevented syncytia formation; also recorded: similarly potent in both cell types; also recorded: dose-responsive inhibition of syncytia formation
- inhibition of syncytia formation (cell fusion) ([1]; Calu-3 acceptor cells, 1-2 h pretreatment, 4 h co-culture): prevented syncytia formation; also recorded: seemingly larger maximal magnitude of inhibition
- cell loss / cytotoxicity (total GFP) [2, 9]: did not mirror cell loss

Molecule: Cc1cc(C)c(/C=C2\C(=O)Nc3ccccc32)[nH]1 [semaxanib, Semaxanib]
- Syncytia Assay [3, 11]: Active

Molecule: CCCCCCc1ccc(O)cc1O [hexylresorcinol, Hexylresorcinol]
- Syncytia Assay [3, 11]: Active
- cell loss / cytotoxicity (total GFP) [2, 9]: mirrored by cell loss

Molecule: CN(C)CCC(c1ccc(Br)cc1)c1ccccn1 (centres unmarked) [brompheniramine, Brompheniramine]
- inhibition of syncytia formation (cell fusion) [3]: impaired viral entry; also recorded: to a lesser extent, brompheniramine, showed dose-responsive inhibition of syncytia formation; also recorded: inhibited syncytia formation
- Syncytia Assay [3, 11]: Active
- cell loss / cytotoxicity (total GFP) [2, 9]: did not mirror cell loss
